Values quoted from earlier work, collected in patent US20160114057A1, “MODULAR PROTEIN DRUG CONJUGATE THERAPEUTIC” (ZYMEWORKS INC., priority 2013, published 2016).
Where two headings read alike, the source gives them in different places. Where a SMILES comes first, the peptide text is derived from it. [ ]: non-standard residue; d: D form. Aoe = N[C@@H](CCCCCC(=O)[C@@H]1CO1)C(=O)O; Aib = CC(C)(N)C(=O)O

Tests used:
[1] = human, in vivo
[2] = tested on: MCF-7 (breast)
[3] = tested on: P388
[4] = tested on: K562 (CML)
[5] = tested on: various tumor cell lines
[6] = tested on: MKN28 (GI)
[7] = tested on: A431 (EC)
[8] = tested on: colon
[9] = tested on: lung
[10] = tested on: tumors in animal models; conditions: tumor types as in Table 1
[11] = tested on: HT-29 (colon); conditions: cell culture
[12] = tested on: MEL-28; conditions: cell culture
[13] = tested on: A549 (lung)
[14] = tested on: MDR cell lines
[15] = not given; remark: listed apart in the source
[16] = not given; remark: listed apart in the source
[17] = molecular target: histone deacetylase; conditions: inhibits histone deacetylase
[18] = tested on: HCT-116
[19] = KB-31 (melanoma)
[20] = tested on: MCF-7/ADR
[21] = not given; remark: listed apart in the source
[22] = tested on: NCI tumor panel (60 cell line); conditions: NCI tumor panel; range over cell lines
[23] = tested on: KB; conditions: KB
[24] = tested on: HL-60
[25] = tested on: A2780
[26] = tested on: CD33+ cells (HL-60, NOMO-1, and NKM-1); conditions: at 100 ng/mL
[27] = i.p. in mice
[28] = tested on: MKM-45
[29] = tested on: DLD-1
[30] = tested on: PC-13
[31] = tested on: colon 26
[32] = tested on: A-498 (kidney)
[33] = tested on: A-549 (epidermoid carcinoma)
[34] = tested on: SK-OV-3 (ovary)
[35] = tested on: U-937 (lymphoma)

In the case of C/C(=C\c1csc(C)n1)[C@@H]1C[C@@H]2O[C@]2(C)CCC[C@H](C)[C@H](O)[C@@H](C)C(=O)C(C)(C)[C@@H](O)CC(=O)N1 [BMS-247550], the “clinical responses (in words)” value [1] is given as “tumor (objective” and the “Toxicity (in words)” value is given as “sever toxicity”.

For CN[C@H](C(=O)N[C@H](C(=O)N(C)[C@H](/C=C(\C)C(=O)O)C(C)C)C(C)(C)C)C(C)(C)c1c[nH]c2ccccc12 [Hemiasterlins A & B and analogs], the IC50 [2] is given as 0.3 to 3 nM and the IC50 [3] is given as 0.4 ng/mL P388.

In the case of COc1c(O)c2c(c3cc(C(=O)N4CCc5c4c(O)c(OC)c4[nH]c(C(=O)N6CC7CC78C6=CC(=O)c6[nH]cc(C)c68)cc54)[nH]c13)CCN2C(C)=O (stereo not shown) [Gilvusmycin], the IC50 [4] is listed as 0.86 K562 (CML) ng/mL, the IC50 [3] is listed as 0.08 P388 ng/mL and the IC50 ([5]; P388, K562, A431, MKN28, read-out: IC50 (for all)) is listed as under 1 nM. For the same compound, the IC50 [6] was 0.75 MKN28 (GI); ng/mL and the IC50 [7] was 0.72 A431 (EC) ng/mL.

In the case of CC[C@@H]1/C=C/C=C/C[C@H](C)[C@@H](O)[C@](C)(O)C(=O)[C@H](C)[C@@H](O)[C@H](C)C(=O)[C@H](C)[C@@H](O)[C@H](C)/C=C/C(=O)O[C@H]2[C@@H](C)[C@@H](CC1)O[C@@]1(CC[C@@H](C)[C@@H](C[C@H](C)O)O1)[C@@H]2CC [NK-1301129], the “Activity (IC50)” value [8] is listed as 25 ng/mL colon and the “Activity (IC50)” value [9] is listed as 8.5 ng/mL lung.

In the case of C=C1C[C@@H]2CCO[C@H]3[C@@H]4C[C@H]5CC[C@H](CC(=O)C[C@@H]6[C@@H](OC)[C@@H](C[C@H](O)CO)O[C@H]6C[C@H]6O[C@@H](CC[C@@H]1O2)C[C@@H](C)C6=C)O[C@@H]5[C@@H]1OCC[C@@H]3O[C@H]41 [Halichondrin B analogs], the “activity in animal models (in words)” value [10] is given as “active (tumor”.

In the case of C=CC(C)(C)OC[C@H]1NC(=O)[C@H]([C@@H](C)OC(C)(C)C=C)NC(=O)C2CSC(N2)[C@@H](Cc2ccccc2)NC(=O)[C@@H]2CCCN2C(=O)C(C)NC(=O)[C@H]([C@@H](C)CC)NC1=O (stereo partly shown) [Trunkamide A], the IC50 [11] is given as 0.5 HT-29; micrograms/mL, the IC50 [12] is given as 1.0 MEL-28 micrograms/mL and the IC50 ([3]; cell culture) is given as 0.5 P388; micrograms/mL. The IC50 ([13]; cell culture, A549) was 0.5 A549; micrograms/mL.

For Didemnin B, the “activity against multi-drug/drug resistant cell lines (in words)” value [14] is given as “Not potent against”, the MTD ([15]; in vivo) is given as 6.3 mg/Kg; toxicity and the t1/2 ([16]; in vivo) is given as “cleared (t1/2 4.8 hrs”. For the same compound, the “Toxicity (in words)” value was “cardiotoxicity;”.

For CC[C@H](C)[C@@H]([C@@H](CC(=O)N1CCC[C@H]1[C@H](OC)[C@@H](C)C(=O)NCCc1ccccc1)OC)N(C)C(=O)[C@@H](NC(=O)[C@H](C(C)C)N(C)C)C(C)C [soblidotin], the MTD ([15]; IV) is listed as “MTD was 1.8 mg/Kg” and the inhibition ([5]; cell culture: colon, melanoma, M5076 tumors, P388, dose not reported) is listed as 75-85% inhibition.

In the case of CC1(C)NC(=O)[C@H](CCCCCC(=O)[C@@H]2CO2)NC(=O)[C@H]2CCCN2C(=O)[C@H](Cc2ccccc2)NC1=O [Chlamydocin] (cyclo([Aib]F[dP][Aoe])), the IC50 [17] is given as 1.3 nM.

In the case of C/C(=C\c1csc(C)n1)[C@@H]1C[C@@H]2O[C@@H]2CCC[C@H](C)[C@H](O)[C@@H](C)C(=O)C(C)(C)[C@@H](O)CC(=O)O1 [Epothilone A], the IC50 [18] is listed as 3.2 nM, the IC50 [2] is listed as 1.5 nM and the IC50 [19] is listed as 2.1 nM. For the same compound, the IC50 [20] was 27.1 nM.

In the case of C/C=C1\NC(=O)[C@H]2CSSCC/C=C/[C@H](CC(=O)N[C@H](C(C)C)C(=O)N2)OC(=O)[C@H](C(C)C)NC1=O [FR-901228], the dose limiting toxicity ([15]; human) is given as “(human) 18 mg/Kg;”, the “toxic dose (LD50)” value ([21]; ip) is given as 6.4 mg/kg and the “toxic dose (LD50)” value ([21]; iv) is given as 10 mg/kg. For the same compound, the IC50 [22] was 0.56 to 4.1 nM, the t1/2 ([16]; human) was “t1/2 of 8 hrs” and the “Toxicity (in words)” value was “toxicity, lymphoid”.

For Epothilone D, the IC50 [18] is given as 0.42 nM, the IC50 [19] is given as 0.19 nM and the “activity in cell culture (in words)” value [5] is given as “broad activity”. For the same compound, the t1/2 ([16]; in vivo) was “t1/2 of 5-10 hrs” and the “Toxicity (in words)” value was “emesis and anemia;”.

In the case of CCSC1SCC2C(=O)N(C)C3(CC3C)C(=O)OCC(NC(=O)c3nc4ccccc4cc3O)C(=O)NC(C)C(=O)N(C)C1C(=O)N(C)C1(CC1C)C(=O)OCC(NC(=O)c1nc3ccccc3cc1O)C(=O)NC(C)C(=O)N2C (stereo not shown) [SW-163E], the IC50 ([23]; read-out: Activity (IC50)) is given as 0.4 nM, the IC50 [8] is given as 1.6 nM and the IC50 [24] is given as 1.3 nM. The IC50 [25] was 0.2 nM, the IC50 ([3]; read-out: Activity (IC50)) was 0.3 nM and the “Toxicity (in words)” value was “low toxicity (mice”.

In the case of gemtuzumab ozogamicin, the “Toxicity (in words)” value is given as “mild toxicity” and the “killing of CD33+ cells (in words)” value [26] is given as “Kills CD33+ cells”.

In the case of NC[C@H]1[C@H]2CN3C(=O)c4cccn4[C@H]4NC(N)=NC43[C@H]2[C@@]2(N=C(N)N[C@@H]2O)[C@H]1Cl (stereo partly shown) [Palauamine], the IC50 ([23]; cell culture) is listed as 10 KB micrograms/mL, the IC50 [11] is listed as 2 HT-29 (colon) micrograms/mL and the LD50 [27] is listed as “is 13 mg/Kg”. For the same compound, the IC50 ([3]; cell culture) was 0.1 P388 micrograms/mL and the IC50 ([13]; cell culture, A549) was 0.2 A549 (lung) micrograms/mL.

For C=CCNC1=C2C[C@@H](C)C[C@H](OC)[C@H](O)[C@@H](C)/C=C(\C)[C@H](OC(N)=O)[C@@H](OC)/C=C\C=C(/C)C(=O)NC(=CC1=O)C2=O [Variant 17-AAG], the “activity in animal models (in words)” value [10] is listed as “models active” and the t1/2 ([16]; i.v.) is listed as about 1.5 h.

In the case of C/C(=C\c1csc(C)n1)[C@@H]1C[C@@H]2O[C@]2(C)CCC[C@H](C)[C@H](O)[C@@H](C)C(=O)C(C)(C)[C@@H](O)CC(=O)O1 [Epothione B], the IC50 [18] is given as 0.42 nM, the IC50 [2] is given as 0.18 nM and the IC50 [19] is given as 0.19 nM. For the same compound, the “activity in cell culture (in words)” value [5] was “broad activity”, the “clinical responses (in words)” value [1] was “partial” and the t1/2 ([16]; in vivo) was 2.5 h. The IC50 [20] was 2.92 nM.

For CCC1/C=C/C=C/CC(C)C(O)C(C)(O)C(=O)CC(O)C(C)C(O)C(C)C(O)C(C)/C=C/C(=O)OC2C(C)C(CC1)OC1(CCC(C)C(CC(C)O)O1)C2C (stereo not shown) [BE-56384], the IC50 [28] is given as 0.12 MKM-45 ng/mL, the IC50 [29] is given as 34 DLD-1 ng/mL and the IC50 [3] is given as 0.1 P388 ng/mL. The IC50 [30] was 0.12 PC-13 ng/mL and the IC50 [31] was 0.29 colon 26 ng/mL.

In the case of C/C1=C\C(C)C(C)OC(=O)CC(c2ccc(O)cc2)NC(=O)C(Cc2c(Cl)[nH]c3ccccc23)N(C)C(=O)C(C)NC(=O)C(C)C1 (stereo not shown) [Chondramide D], the IC50 [32] is listed as 15 nM, the IC50 [33] is listed as 5 nM and the IC50 [34] is listed as 5 nM. For the same compound, the IC50 ([13]; A549 (lung), read-out: Activity (IC50)) was 14 nM and the IC50 [35] was 3 nM.
